Test results published in patent US6465396B1, “Method to promote growth of a plant” (Nara Institute of Science and Technology, priority 1999, dated 2002).
Where two headings read alike, the source gives them in different places.

How the values were obtained:
[1] = system: rice (Oryza sativa L.: Hinihikari); experiment: Photo-oxidation damage, photosynthetic ability as oxygen generation rate, rice leaves; conditions: for residual photosynthetic ability (oxygen generation rate): when control sample was reduced to 30%, concentration not given, FIG. 15
rice plant bodies = experiment: Plant growth test, rice; type: in vivo, Oryza sativa L.; conditions: 2 weeks cultivation
From the text: The effect of formate salts addition observed on plant growth was investigated. The seeds of rice were sterilized and seeded into a glass tube (130 mm×40 mm I.D) containing medium described below. The contents of the medium are ½MS salt, 0.1% gellan gum and various concentrations of sodium formate. The pH was adjusted to 6.0 by addition of 1N sodium hydroxide and the medium was sterilized by autoclave treatment. […] After cultivation for 2 weeks under this condition, the extent of growth was estimated by measurement of length of the aerial part and wet weight of plant bodies.

kidney bean = conditions: FIG. 19
Experimental: The seeds of kidney bean (Phaseolus vulgaris L.: tsurunashiinngenn) were used for the experiments. The plants were seeded under a vermiculight. They were grown under the light intensity of 150 μmol quanta/m^2·s. Normal leaves derived from the plant bodies of 2 to 4 weeks old were used for the experiments.
In the case of rice plant, a portion containing petiole was excised from the plant bodies and it was immersed into 10 ml of sample compound in a tube. It was incubated for 30 min at 25° C. under 150 μmol quanta/m^2·s of illumination. […] After the administration, water in the leaf disk was excluded, the leaf was set in the chamber and the ability of photosynthesis was measured on the leaf. […]
After measurement of rate of photosynthesis as described above, the air without carbon dioxide was introduced into the chamber and the light was illuminated at the intensity of 1600 μmol quanta/m^2·s for a certain period. […] The rate of oxygen generation was measured after this treatment and inhibition of photosynthetic ability caused by photo-oxidation damage was thus evaluated.
To estimate sanity of photo-system, the fluorescence originated from chlorophyl, the center of photo-system, was measured on rice under the same condition described above after photo-oxidation damage. […] The fluorescence was measured before and after photo-oxidation damage to estimate Fv/Fm value.

tabacco = conditions: FIG. 18
Experimental: The seeds of tabacco (Nicotina tabacum L.: SRI) were used for the experiment. The plants were seeded under a vermiculight. They were grown under the light intensity of 150 μmol quanta/m^2·s. Normal leaves derived from the plant bodies of 4 to 6 weeks old were used for the experiments.
In the case of rice plant, a portion containing petiole was excised from the plant bodies and it was immersed into 10 ml of sample compound in a tube. It was incubated for 30 min at 25° C. under 150 μmol quanta/m^2·s of illumination. After administration of sample compounds, the leaves of rice were sliced and put in a chamber with diameter of 35 mm and the rate of oxygen generation (μmol O2/m^2·s) was estimated. In the case of other plants, a leaf disk with diameter of 35 mm was prepared prior to the experiment. […] After the administration, water in the leaf disk was excluded, the leaf was set in the chamber and the ability of photosynthesis was measured on the leaf. […]
After measurement of rate of photosynthesis as described above, the air without carbon dioxide was introduced into the chamber and the light was illuminated at the intensity of 1600 μmol quanta/m^2·s for a certain period. […] The rate of oxygen generation was measured after this treatment and inhibition of photosynthetic ability caused by photo-oxidation damage was thus evaluated. […]

[2] = system: tabacco (Nicotina tabacum L.: SRI); conditions: 2 mM, FIG. 6
Experimental: (§1) The plants were seeded under a vermiculight.
(§2) Generation of oxygen was measured by clark type oxygen electrode. The cuvette (LD2/2 type), the oxygen electrode controller (CB 1-D3 type) and the light source (LS-2, Hansatec corp.) were adopted as components of the measuring device. The chamber of cuvette contained in this device is composed of combination of a chamber, capable of hermetically sealing with diameter of 35 mm and volume of 5 ml, and an oxygen electrode. As upper side of the chamber is transparent, arbitrary intensity of light can be illuminated. The plant body described above, after administration of formic acid, was enclosed in the chamber and sealed hermetically. It was illuminated using a halogen lamp as the light source, and the rate of oxygen generation was measured under the air containing 5% of carbon dioxide. Unless specified otherwise, the measurement was performed under the light adjusted to a intensity of 253 μmol quanta/m^2·s using a red filter or an attenuation filter. The oxygen generation was calculated by dividing the obtained value with the surface area of the leaf.

[3] = system: kidney bean (Phaseolus vulgaris L.: tsurunashiinngenn); conditions: 2 mM, FIG. 5
Experimental: as §1, §2

FDH gene = conditions: ground part (root) of rice; pretreatment with formic acid administration; FIG. 14
Experimental: In the case of utilization for northern analysis, total RNA was isolated from leaf and root of rice cultivated under condition described above, using Isogen RNA purification kit (Nippon gene).
RNA was prepared from the aerial part and the ground part (root) respectively and the northern analysis was performed on these samples. Forty μg of the total RNA was applied to each lane and electrophoresis was performed on 1% agarose gel (containing 2.2 M formaldehyde). The gel was charged for the capillary blotting using Hybond N+membrane (Amersham) using 20×SSC. The hybridization was performed according to instruction of AlkPhosDIREST (Amersham) and detection was performed using CDP-Star (Amersham). The FDH cDNA (open reading frame:1130 bp), amplified by PCR, was used as probe DNA.

[4] = system: formate dehydrogenase (FDH); conditions: root of rice cultivated in the presence of 1.4 mM formic acid, 25° C., two weeks; FIG. 12
Experimental: Then the alteration of FDH activity by administration of formic acid was investigated. The rice plant bodies were cultivated in the presence or absence of 1.4 mM formic acid at 25° C. for two weeks. The aerial part and the ground part (root) was separated and the crude enzyme solution was prepared from each part. The enzyme solution was prepared to 1.5 mg/ml and FDH activities of the samples were measured. The FDH activity was measured using [^13C] formic acid as the substrate and detecting [^13C] CO2 in the supernatant by GC-MS.

SMILES: O=CO [formate]
- damage on photo-system (Fv/Fm) caused by photo-oxidation damage (rice; 2 mM, FIG. 7): avoided

SMILES: O=C[O-].[Na+] [formate salt]
- photosynthetic ability under various light intensities after photo-oxidation damage ([1]; formate salt, strong light illumination (inclination not altered under weak light), FIG. 3): inhibited damage on photosynthetic ability under strong light illumination
- residual photosynthetic ability (oxygen generation rate) [1]: 60%

SMILES: O=C[O-].[Na+] [sodium formate]
- growth promotion, wet weight of plant bodies (rice plant bodies; 125 ppm in medium, FIG. 8): 25%
- growth promotion, length of aerial part (rice plant bodies; 125 ppm in medium, FIG. 9): 25%
- growth promotion effect (rice plant bodies; 1000 ppm in medium): disappeared

SMILES: CO [methanol]
- photosynthetic ability under various light intensities after photo-oxidation damage ([1]; methanol, especially under strong light illumination, FIG. 16): avoided photo-oxidation damage
- residual photosynthetic ability (oxygen generation rate) [1]: 70%
- reduction of Fv/Fm value caused by photo-oxidation damage (rice; 25 mM or 50 mM, FIG. 17): significant inhibition
- damage on photo-system by chlorophyl fluorescence analysis (kidney bean; 100 mM): significantly alleviated
- damage on photo-system by chlorophyl fluorescence analysis (tabacco; 100 mM): significantly alleviated

SMILES: O=C[O-].[K+] [potassium formate, Potassium formate]
- dose-dependency of protection on photo-oxidation damage ([1]; 2 mM or 4 mM, FIG. 4): optimum protection
- oxygen generation activity retained after photo-oxidation damage ([1]; 2 mM, 8 min strong light illumination in the absence of carbon dioxide, control reduced to about 30%, FIG. 1): 90%
- time course of damage on photosynthetic ability ([1]; 2 mM, photo-oxidation damage treatment 2 min, 4 min, FIG. 2): the damage on photosynthetic ability was inhibited
- effect on oxygen generation rate reduction caused by photo-oxidation damage [2]: exhibited inhibition
- effect on oxygen generation rate reduction caused by photo-oxidation damage [3]: exhibited inhibition

SMILES: O=CO [formic acid]
- damage on photo-system by chlorophyl fluorescence analysis (kidney bean; 2 mM): potency
- damage on photo-system by chlorophyl fluorescence analysis (tabacco; 2 mM): potency
- expression of FDH gene (FDH gene): significant increase
- FDH activity compared to control group [4]: about twice
